Patent US11274332B2, “Methods of administering 3,4-diaminopyridine” (SERB SA, priority 2011, dated 2022)

Experiment: Bioavailability/bioequivalence study of 3,4-DAP phosphate salt vs free base in healthy subjects (Example A)
Type: in vivo, human
Procedure: The primary objectives of the study were to evaluate the clinical tolerance of a single 10 mg dose (equivalent base) oral intake of 3,4-DAP salt in five healthy subjects and to determine the relative bioequivalence of a single 20 mg oral dose of 3,4-DAP administered as a salt or as a free base to 26 healthy subjects. The secondary objectives were to study pharmacokinetic parameters (elimination half and elimination constant), to compare the biological tolerance of both a 20 mg oral intake of 3,4-DAP as a free base and as a salt, and to measure QTcf intervals at expected Cmax.
This was an open and uncontrolled study of the clinical tolerance to a low dose of the phosphate salt. Subjects were hospitalized from 8 am to 4 pm after fasting since midnight the previous night. At 8:30 am, one 10 mg 3,4-DAP phosphate tablet was administered with a glass of water in the presence of a supervising nurse. During their 8-hour stay, heart rate was continuously monitored, blood pressure was measured on eight occasions (including baseline) and three urine samples were taken.
This was a double-blind, randomized 2-way cross-over trial. The two administration periods were separated by a wash-out of at least 3 days and not more than 10 days. At the beginning of each period, subjects were hospitalized at 8 am (while fasting since midnight) for at least 12 hours. At their arrival a urinary sample was taken and avenous catheter was inserted into an antecubital vein. A first blood sample was drawn 15 min before drug intake. At around 8:30 am drug was administered (as the phosphate salt or free base according to randomization) with a glass of water under the supervision of a nurse and subjects remained seated for 15 min. Group A received two 10 mg tablets of 3,4-DAP phosphate. Group B received two 10 mg capsules of 3,4-DAP as a free base.
Two 5 mL blood samples were drawn at the following times after drug administration: 5 min, 10 min, 15 min, 20 min, 30 min, 45 min, 60 min, 75 min, 90 min, 120 min, 240 min, 360 min, 480 min, and 660 min. At each sampling time two 5 mL samples were drawn on […] heparinized tubes. They were immediately centrifuged at room temperature. Serum was then separated and dispatched into three clearly identified aliquots which were frozen at −20° C. […]
12-lead ECGs (50 mm/s, 2 cm/mV) were recorded over 1 minute three times prior to drug intake (HR-RR, QT and QTcf were averaged to determine baseline values) and then at 15, 20, 30, 45, 60, 75, 90, 120, and 240 min post dose. ECG parameters were recorded by using Cardionics™ ECG/VCG software (version 3.3.0). Blood pressure was measured at 120 min post dosing. […]
An HPLC-electrochemical detection system was used to assay 3,4-DAP in serum samples. […] The extracted sample was analyzed by HPLC coupled with coulemetric detection. […]

Q: Which “differences in Cmax, AUC and t1/2 between subjects” value (between patients) does the source give for `Nc1ccncc1N` [3,4-DAP, 3,4-diaminopyridine] here?
A: up to 10 fold

Q: What about the Cmax (human, serum, as the phosphate salt, 20 mg oral, read-out: Cmax, range between patients) of the same compound?
A: 13 to 167 ng/mL

Q: What about the half-life (human, serum, phosphate salt or free base, 20 mg oral) of the same compound?
A: < 156 min

Q: And the “coefficient of variations for AUCs and Cmax” value (phosphate salt or free base, 20 mg oral)?
A: exceeding 30%
